Data as given in US20090203737A1, “Pyrrole Derivatives as Positive Allosteric Modulators of Metabotropic Receptors” (priority 2005, published 2009).

Experiments:
mGluR5 [1] = biological target: T1, mGluR5 (Rattus norvegicus, UniProt P31424); assay: mGluR5 binding assay ([3H]-MPEP, rat brain membranes); conditions: 3 nM [3H]-MPEP, 1 h at 4° C.
T1 construct: positive allosteric modulators of mGluR5 receptors in native preparations; endogenous in cells; host or cells: primary cortical astrocytes from Sprague-Dawley rat embryos (E16-19)
From the text: Activity of compounds of the invention was examined following a radioligand binding technique using whole rat brain and tritiated 2-methyl-6-(phenylethynyl)-pyridine ([^3H]-MPEP) as a ligand following similar methods than those described in Gasparini et al. (2002) Bioorg. Med. Chem. Lett. 12:407-409 and in Anderson et al. (2002) J. Pharmacol. Exp. Ther. 303 (3) 1044-1051.
Cortices were dissected out from brains of 200-300g Sprague-Dawley rats (Charles River Laboratories, L'Arbresle, France). Tissues were homogenized in 10 volumes (vol/wt) of ice-cold 50 mM HEPES-NaOH (pH 7.4) using a Polytron disrupter (Kinematica AG, Luzern, Switzerland) and centrifuged for 30 min at 40,000 g. (4° C.). […] Protein concentration was determined by the Bradford method (Bio-Rad protein assay, Reinach, Switzerland) with bovine serum albumin as standard.
Membranes were thawed and resuspended in binding buffer containing 20 mM HEPES-NaOH, 3 mM MgCl2, 3 mM CaCl2, 100 mM NaCl, pH 7.4. […] Radioactivity was determined by liquid scintillation spectrometry using a 96-well plate reader (TopCount, Perkin-Elmer, Downers Grove, USA).
The inhibition curves were generated using the Prism GraphPad program (Graph Pad Software Inc, San Diego, USA). […] The mean of IC50 obtained from at least three independent experiments of selected molecules performed in duplicate were calculated.

rat mGluR5 receptor = biological target: T2, rat mGluR5 receptor (Rattus norvegicus, UniProt P31424); assay: mGluR5 assay on HEK-expressing rat mGluR5 (fluorescent cell based Ca2+ mobilization assay); conditions: for EC50: HEK-293 cells stably expressing rat mGluR5, no co-addition of glutamate, mean of at least three independent experiments in duplicate, read-out: Ca++ Flux (mean EC50); for activation of rat mGluR5 receptors: HEK-rat mGluR5 cell line, without co-addition of glutamate or mGluR5 agonist
T2 construct: expressed in transfected cells
Procedure: Positive functional expression of HEK-293 cells stably expressing rat mGluR5 receptor was determined by measuring intracellular Ca^2+ changes using a Fluorometric Imaging Plate Reader (FLIPR, Molecular Devices, Sunnyvale, Calif.) in response to glutamate or selective known mGluR5 agonists and antagonists. Rat mGluR5 RT-PCR products in HEK-293 cells were sequenced and found 100% identical to rat mGluR5 Genbank reference sequence (NM_017012). HEK-293 cells expressing rmGluR5 were maintained in media containing DMEM, dialyzed Fetal Bovine Serum (10%), Glutamax™ (2 mM), Penicillin (100 units/ml), Streptomycin (100 μg/ml), Geneticin (100 μg/ml) and Hygromycin-B (40 μg/ml) at 37° C./5% CO2.
After one day of incubation, cells were washed with assay buffer containing: 142 mM NaCl, 6 mM KCl, 1 mM […], 1 mM CaCl2, 20 mM HEPES, 1 g/L glucose, 0.125 mM sulfinpyrazone, pH 7.4. After 60 min of loading with 4 uM Fluo-4 (TefLabs, Austin, Tex.), the cells were washed three times with 50 μl of PBS Buffer and resuspended in 45 μl of assay Buffer. The plates were then transferred to a Fluorometric Imaging Plate Reader (FLIPR, Molecular Devices, Sunnyvale, Calif.) for the assessment of intracellular calcium flux. After monitoring the baseline fluorescence for 10 seconds, increasing concentrations of representative compound (from 0.01 to 60 μM) of the present invention diluted in Assay Buffer (15 μl of 4× dilutions) was added to the cell. The final DMSO concentration in the assay was 0.3%. In each experiment, fluorescence was then monitored as a function of time for 3 minutes and the data analyzed using Microsoft Excel and GraphPad Prism. Each data point was also measured two times.
Under these experimental conditions, this HEK-rat mGluR5 cell line is able to directly detect positive allosteric modulators without the need of co-addition of glutamate or mGluR5 agonist.
The concentration-response curves of representative compounds of the present invention were generated using the Prism GraphPad software (Graph Pad Inc, San Diego, USA). The curves were fitted to a four-parameter logistic equation:
(Y=Bottom+(Top−Bottom)/(1+10̂((LogEC50−X)*Hill Slope)
allowing determination of EC50 values.
The Table 1 below represents the mean EC50 obtained from at least three independent experiments of selected molecules performed in duplicate.

mGluR5 [2] = biological target: T1, mGluR5; conditions: Liu et al (2006), Zhang et al (2005); cited from earlier work

T1 sequence (P31424 21-1203): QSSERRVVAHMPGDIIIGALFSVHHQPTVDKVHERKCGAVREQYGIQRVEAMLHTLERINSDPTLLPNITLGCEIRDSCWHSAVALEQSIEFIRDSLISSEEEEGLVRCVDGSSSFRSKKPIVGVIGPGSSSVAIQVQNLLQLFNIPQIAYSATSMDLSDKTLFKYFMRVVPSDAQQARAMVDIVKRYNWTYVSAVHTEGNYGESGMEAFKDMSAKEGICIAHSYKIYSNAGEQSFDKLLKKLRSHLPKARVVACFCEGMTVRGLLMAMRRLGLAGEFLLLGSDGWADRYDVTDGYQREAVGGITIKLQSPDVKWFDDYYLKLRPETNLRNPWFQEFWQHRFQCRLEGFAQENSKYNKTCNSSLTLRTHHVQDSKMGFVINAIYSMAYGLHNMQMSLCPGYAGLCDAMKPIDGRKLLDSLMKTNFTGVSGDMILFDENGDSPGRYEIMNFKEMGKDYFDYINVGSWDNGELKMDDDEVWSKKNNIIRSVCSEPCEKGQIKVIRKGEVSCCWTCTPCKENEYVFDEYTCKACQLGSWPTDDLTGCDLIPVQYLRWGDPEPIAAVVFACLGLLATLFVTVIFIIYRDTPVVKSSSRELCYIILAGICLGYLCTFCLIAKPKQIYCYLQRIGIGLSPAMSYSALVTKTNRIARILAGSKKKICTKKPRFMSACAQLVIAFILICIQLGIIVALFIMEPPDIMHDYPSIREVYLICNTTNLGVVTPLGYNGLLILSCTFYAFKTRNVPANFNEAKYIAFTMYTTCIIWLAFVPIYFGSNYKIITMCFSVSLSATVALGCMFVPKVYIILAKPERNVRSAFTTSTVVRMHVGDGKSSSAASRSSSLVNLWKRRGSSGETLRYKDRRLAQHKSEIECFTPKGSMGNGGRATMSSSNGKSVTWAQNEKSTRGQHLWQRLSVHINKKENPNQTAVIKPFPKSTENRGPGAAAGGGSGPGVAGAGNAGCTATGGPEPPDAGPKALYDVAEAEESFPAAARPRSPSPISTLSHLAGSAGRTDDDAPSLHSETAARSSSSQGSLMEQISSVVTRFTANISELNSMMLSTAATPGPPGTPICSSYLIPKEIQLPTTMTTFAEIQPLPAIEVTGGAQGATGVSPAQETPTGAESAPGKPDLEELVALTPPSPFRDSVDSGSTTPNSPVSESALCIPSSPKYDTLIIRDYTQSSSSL
T2 sequence (P31424 21-1171 isoform P31424-2 limits assumed): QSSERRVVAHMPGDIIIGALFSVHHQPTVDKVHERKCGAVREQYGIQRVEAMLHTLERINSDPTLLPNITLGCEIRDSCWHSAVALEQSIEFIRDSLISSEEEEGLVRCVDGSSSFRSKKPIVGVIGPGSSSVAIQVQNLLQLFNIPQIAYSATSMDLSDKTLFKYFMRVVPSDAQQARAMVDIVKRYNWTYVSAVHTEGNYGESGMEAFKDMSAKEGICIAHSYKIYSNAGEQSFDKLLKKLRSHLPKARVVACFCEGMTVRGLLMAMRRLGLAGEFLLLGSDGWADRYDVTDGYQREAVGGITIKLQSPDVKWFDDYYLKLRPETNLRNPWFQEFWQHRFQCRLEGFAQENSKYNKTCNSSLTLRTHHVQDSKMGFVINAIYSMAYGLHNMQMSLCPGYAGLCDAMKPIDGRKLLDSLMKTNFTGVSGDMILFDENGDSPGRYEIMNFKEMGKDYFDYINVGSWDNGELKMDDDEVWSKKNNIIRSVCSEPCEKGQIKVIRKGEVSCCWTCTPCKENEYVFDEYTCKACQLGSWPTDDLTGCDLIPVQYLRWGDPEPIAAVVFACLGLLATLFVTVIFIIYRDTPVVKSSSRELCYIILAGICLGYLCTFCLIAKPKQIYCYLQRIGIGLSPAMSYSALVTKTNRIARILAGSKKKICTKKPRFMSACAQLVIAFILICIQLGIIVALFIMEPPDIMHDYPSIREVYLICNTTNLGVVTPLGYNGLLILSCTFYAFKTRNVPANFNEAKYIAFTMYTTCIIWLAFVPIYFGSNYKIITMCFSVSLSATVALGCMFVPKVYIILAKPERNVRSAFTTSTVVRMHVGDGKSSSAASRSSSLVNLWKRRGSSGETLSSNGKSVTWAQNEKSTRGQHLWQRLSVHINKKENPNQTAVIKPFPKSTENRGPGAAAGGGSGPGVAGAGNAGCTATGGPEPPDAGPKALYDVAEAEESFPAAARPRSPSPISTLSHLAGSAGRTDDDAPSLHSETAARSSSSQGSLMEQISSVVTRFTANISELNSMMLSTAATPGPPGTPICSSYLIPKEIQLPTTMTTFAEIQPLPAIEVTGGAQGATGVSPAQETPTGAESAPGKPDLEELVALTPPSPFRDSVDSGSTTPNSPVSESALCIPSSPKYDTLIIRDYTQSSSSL

Compound: O=C(c1ccc(F)cc1)N1CCC[C@H](c2nc(-c3ccc[nH]3)no2)C1 [Example 1, (4-Fluoro-phenyl)-{(S)-3-[3-(1H-pyrrol-2-yl)-[1,2,4]oxadiazol-5-yl]-piperidin-1-yl}-methanone]
- IC50 (mGluR5 [1]): < 30000 nM
- melting point: 130 to 135 °C
- EC50 (rat mGluR5 receptor): < 1000 nM

Compound: O=C(Nc1ccc(Cl)cc1CN1C(=O)c2ccccc2C1=O)c1ccccc1O [CPPHA, reference compound]
- activation of rat mGluR5 receptors (rat mGluR5 receptor): activating
- activity in rat cortical astrocytes culture in the absence of added glutamate (mGluR5 [2]): inactive

Compound: N#Cc1cccc(C(=O)Nc2cc(-c3ccccc3)nn2-c2ccccc2)c1 [CDPPB, reference compound]
- activation of rat mGluR5 receptors (rat mGluR5 receptor): activating
- activity in rat cortical astrocytes culture in the absence of added glutamate (mGluR5 [2]): inactive

Compound: Fc1cccc(/C=N/N=C/c2cccc(F)c2)c1 [DFB, reference compound]
- activation of rat mGluR5 receptors (rat mGluR5 receptor): activating
- activity in rat cortical astrocytes culture in the absence of added glutamate (mGluR5 [2]): inactive

Compound: O=C(c1ccc(F)cc1)N1CCCC(c2noc(-c3cc4ccccc4[nH]3)n2)C1 (stereo not shown) [Example 11, (4-Fluoro-phenyl)-{3-[5-(1H-indol-2-yl)-[1,2,4]oxadiazol-3-yl]-piperidin-1-yl}-methanone]
- melting point: 199 to 201 °C
- EC50 (rat mGluR5 receptor): 1000 to 10000 nM

Compound: O=C(c1ccc(F)nc1)N1CCC[C@H](c2nc(-c3ccc[nH]3)no2)C1 [Example 4, (6-Fluoro-pyridin-3-yl)-{(S)-3-[3-(1H-pyrrol-2-yl)-[1,2,4]oxadiazol-5-yl]-piperidin 1-yl}-methanone]
- melting point: 131 to 132 °C
- EC50 (rat mGluR5 receptor): 1000 to 10000 nM

Compound: O=C(c1ccc(F)cc1F)N1CCCC(c2noc(-c3ccc[nH]3)n2)C1 (stereo not shown) [Example 6, (2,4-Difluoro-phenyl)-{3-[5-(1H-pyrrol-2-yl)-[1,2,4]oxadiazol-3-yl]-piperidin-1-yl}-methanone]
- melting point: 151 °C
- EC50 (rat mGluR5 receptor): < 1000 nM

Compound: Cc1oncc1C(=O)N1CCCC(c2noc(-c3cc4ccccc4[nH]3)n2)C1 (stereo not shown) [Example 26, {3-[5-(1H-Indol-2-yl)-[1,2,4]oxadiazol-3-yl]-piperidin-1-yl}-(5-methyl-isoxazol-4-yl)-methanone]
- melting point: 175.6 to 177.2 °C
- EC50 (rat mGluR5 receptor): 1000 to 10000 nM

Compound: O=C(c1ccc(F)cc1)N1CCC[C@H](c2noc(-c3cc([N+](=O)[O-])c[nH]3)n2)C1 [Example 36, (4-Fluoro-phenyl)-{(S)-3-[5-(4-nitro-1H-pyrrol-2-yl)-[1,2,4]oxadiazol-3-yl]-piperidin-1-yl}-methanone]
- melting point: 157 to 158 °C
- EC50 (rat mGluR5 receptor): < 1000 nM

Compound: N#Cc1c[nH]c(-c2nc([C@H]3CCCN(C(=O)c4ccc(F)cc4)C3)no2)c1 [Example 72, (4-Fluoro-phenyl)-{(S)-3-[5-(4-cyano-1H-pyrrol-2-yl)-[1,2,4]oxadiazol-3-yl]-piperidin-1-yl}-methanone]
- melting point: 204.8 to 205.6 °C
- EC50 (rat mGluR5 receptor): 1000 to 10000 nM

Compound: O=C(c1ccc(F)cc1)N1CCC[C@H](c2noc(-c3ccc[nH]3)n2)C1 [Example 22, (4-Fluoro-phenyl)-{(S)-3-[5-(1H-pyrrol-2-yl)-[1,2,4]oxadiazol-3-yl]-piperidin-1-yl}-methanone]
- melting point: 181 °C
- EC50 (rat mGluR5 receptor): < 1000 nM

Compound: O=C(c1ccc(F)c(F)c1)N1CCCC(c2noc(-c3ccc[nH]3)n2)C1 (stereo not shown) [Example 5, (3,4-Difluoro-phenyl)-{3-[5-(1H-pyrrol-2-yl)-[1,2,4]oxadiazol-3-yl]-piperidin-1-yl}-methanone]
- melting point: 177 °C
- EC50 (rat mGluR5 receptor): < 1000 nM

Compound: O=C(c1ccc(F)c(F)c1)N1CCC[C@H](c2nc(-c3ncc[nH]3)no2)C1 [Example 25, (3,4-Difluoro-phenyl)-{(S)-3-[3-(1H-imidazol-2-yl)-[1,2,4]oxadiazol-5-yl]-piperidin-1-yl}-methanone]
- melting point: 156 to 157 °C
- EC50 (rat mGluR5 receptor): 1000 to 10000 nM

Compound: Cc1c[nH]c(-c2nc([C@H]3CCCN(C(=O)c4ccc(F)cc4)C3)no2)c1 [Example 27, (4-Fluoro-phenyl)-{(S)-3-[5-(4-methyl-1H-pyrrol-2-yl)-[1,2,4]oxadiazol-3-yl]-piperidin-1-yl}-methanone]
- melting point: 183 °C
- EC50 (rat mGluR5 receptor): < 1000 nM

Compound: Cc1oncc1C(=O)N1CCC[C@H](c2nc(-c3cc4ccccc4[nH]3)no2)C1 [Example 19, {(S)-3-[3-(1H-Indol-2-yl)-[1,2,4]oxadiazol-5-yl]-piperidin-1-yl}-(5-methyl-isoxazol-4-yl)-methanone]
- melting point: 163 to 164 °C
- EC50 (rat mGluR5 receptor): 1000 to 10000 nM
